Our source for the IC50 values is patent publication US10501460B2, “Heterocyclic compounds and uses thereof” (Plexxikon Inc., priority 2013, dated 2019).

Each structure is given as a SMILES string.

One assay concerns bromodomain. As to the kind of experiment: Bromodomain cell assays of Example 40 (at least one of them). The following applies: in at least one of the bromodomain cell assays described in Example 40. It is filed as cell-based. The method in brief:
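Growth inhibition: 3000 MV-4-11, MOLM-13, MM.1S or neuroblastoma cells/well got an 8-point 1:3 series from 10 μM top (0.2% DMSO) for 72 h, then CellTiter-Glo luminescence. Myc reporter: MV-4-11 with E-box firefly luciferase, 24 h exposure, One-Glo luminescence plus CellTiter-Fluo cell count. pIC50 from four-parameter fit.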

Another assay has as its system MV-4-11. As to the kind of experiment: Oncology cell growth assay MV-4-11 (CellTiter Glo, 72 hours). The assay is classed as cell-based. The following applies: Homo sapiens, MV4-11, 72 h; MV-4-11 cell growth inhibitory activity, 3d. In a few lines: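 Growth read by CellTiter Glo luminescence after 72 h compound exposure of MV-4-11 AML cells (MLL-AF4), using 8-point 1:3 series to 10 μM final in 0.2% DMSO. Data normalized to DMSO wells, four-parameter fit yields pIC50.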
Background: Cellular ATP, detected with luciferase, serves as a proxy for viable cell number.

In the case of `Cc1noc(C)c1-c1cnc2c(-c3ccccc3)cn(S(=O)(=O)c3ccccc3)c2c1` [P-0077, 4-[1-(benzenesulfonyl)-3-phenyl-pyrrolo[3,2-b]pyridin-6-yl]-3,5-dimethyl-isoxazole], the 50% inhibitory concentration (IC50) is below 10 µM in the assay with bromodomain and 1 to 10 µM in the assay on MV-4-11.
Taken in the same sequence, the figures for `Cc1noc(C)c1-c1cnc2c(-c3cnn(CC(F)(F)F)c3)cn(S(=O)(=O)C3CCCC3)c2c1` [P-0149, 4-[1-cyclopentylsulfonyl-3-[1-(2,2,2-trifluoroethyl)pyrazol-4-yl]pyrrolo[3,2-b]pyridin-6-yl]-3,5-dimethyl-isoxazole] were below 10 µM and at most 1 µM.
Regarding `Cc1noc(C)c1-c1cnc2c(-c3cnn(C)c3)cn(Cc3c(Cl)cccc3Cl)c2c1` [P-0189, 4-[1-[(2,6-dichlorophenyl)methyl]-3-(1-methylpyrazol-4-yl)pyrrolo[3,2-b]pyridin-6-yl]-3,5-dimethyl-isoxazole], the figures for the IC50 with bromodomain and in the assay with MV-4-11 were below 10 µM and at most 1 µM, respectively.
Taken in the same sequence, the figures for `COc1ncc(F)cc1C(OC)c1c[nH]c2ncc(-c3c(C)noc3C)cc12` (stereo not drawn) [P-0011, 4-[3-[(5-fluoro-2-methoxy-3-pyridyl)-methoxy-methyl]-1H-pyrrolo[2,3-b]pyridin-5-yl]-3,5-dimethyl-isoxazole] were below 10 µM and at most 1 µM.
Taken in the same sequence, the figures for `COc1ncc(-c2cn(S(=O)(=O)C3CCCC3)c3cc(-c4c(C)noc4C)cnc23)cn1` [P-0105, 4-[1-cyclopentylsulfonyl-3-(2-methoxypyrimidin-5-yl)pyrrolo[3,2-b]pyridin-6-yl]-3,5-dimethyl-isoxazole] were below 10 µM and 1 to 10 µM.
The corresponding values for `C=CCn1cc(-c2cn(S(=O)(=O)C3CC3)c3cc(-c4c(C)noc4C)cnc23)cn1` [P-0139, 4-[3-(1-allylpyrazol-4-yl)-1-cyclopropylsulfonyl-pyrrolo[3,2-b]pyridin-6-yl]-3,5-dimethyl-isoxazole] are below 10 µM and at most 1 µM.
As to `Cc1noc(C)c1-c1cnc2c(-c3cnn(C4CCCCO4)c3)cn(S(=O)(=O)c3ccccc3)c2c1` (stereo not drawn) [P-0168, 4-[1-(benzenesulfonyl)-3-(1-tetrahydropyran-2-ylpyrazol-4-yl)pyrrolo[3,2-b]pyridin-6-yl]-3,5-dimethyl-isoxazole], the results for the 50% inhibitory concentration (IC50) with bromodomain and in the assay with MV-4-11 were below 10 µM and at most 1 µM, respectively.
For `Cc1noc(C)c1-c1cnc2ccn(S(=O)(=O)C3CCCC3)c2c1` [P-0037, 4-(1-cyclopentylsulfonylpyrrolo [3,2-b]pyridin-6-yl)-3,5-dimethyl-isoxazole], the results for the half-maximal inhibitory concentration (IC50) with bromodomain and in the assay on MV-4-11 were below 10 µM and at most 1 µM, respectively.
As for `Cc1noc(C)c1-c1cnc2c(-c3cnn(C(F)F)c3)cn(S(=O)(=O)CCC(F)(F)F)c2c1` [P-0136, 4-[3-[1-(difluoromethyl)pyrazol-4-yl]-1-(3,3,3-trifluoropropylsulfonyl)pyrrolo[3,2-b]pyridin-6-yl]-3,5-dimethyl-isoxazole], the 50% inhibitory concentration (IC50) in the assay on bromodomain is below 10 µM; with MV-4-11, 1 to 10 µM.
Taken in the same sequence, the figures for `Cc1noc(C)c1-c1cnc2c(-c3cnn(C)c3)cn(Cc3ccccc3F)c2c1` [P-0172, 4-[1-[(2-fluorophenyl)methyl]-3-(1-methylpyrazol-4-yl)pyrrolo[3,2-b]pyridin-6-yl]-3,5-dimethyl-isoxazole] were below 10 µM and at most 1 µM.
The corresponding values for `Cc1noc(C)c1-c1cnc2c(-c3cnn(C)c3)cn([C@@H](C)c3ccccc3)c2c1` [P-0222, 3,5-dimethyl-4-[3-(1-methylpyrazol-4-yl)-1-[(1S)-1-phenylethyl]pyrrolo[3,2-b]pyridin-6-yl]isoxazole] are below 10 µM and at most 1 µM.
Take `Cc1noc(C)c1-c1cnc2[nH]cc(C(O)C3CCC(F)(F)CC3)c2c1` (stereo not drawn) [P-0030, (4,4-difluorocyclohexyl)-[5-(3,5-dimethylisoxazol-4-yl)-1H-pyrrolo[2,3-b]pyridin-3-yl] methanol]: the IC50 with bromodomain was below 10 µM; in the assay on MV-4-11 it was at most 1 µM.
The corresponding values for `Cc1nc(Cn2cc(-c3cnn(C)c3)c3ncc(-c4c(C)noc4C)cc32)cs1` [P-0170, 3,5-dimethyl-4-[3-(1-methylpyrazol-4-yl)-1-[(2-methylthiazol-4-yl)methyl]pyrrolo[3,2-b]pyridin-6-yl]isoxazole] are below 10 µM and at most 1 µM.
As for `Cc1noc(C)c1-c1cnc2c(I)cn(S(=O)(=O)c3ccccc3)c2c1` [P-0076, 4-[1-(benzenesulfonyl)-3-iodo-pyrrolo[3,2-b]pyridin-6-yl]-3,5-dimethyl-isoxazole], the figures for the IC50 with bromodomain and in the assay with MV-4-11 were below 10 µM and at most 1 µM, respectively.
Taken in the same sequence, the figures for `Cc1noc(C)c1-c1cnc2[nH]cc(CC3CCC(F)(F)CC3)c2c1` [P-0034, 4-[3-[(4,4-difluorocyclohexyl)methyl]-1H-pyrrolo[2,3-b]pyridin-5-yl]-3,5-dimethyl-isoxazole] were below 10 µM and at most 1 µM.
As for `COC(c1cn(S(=O)(=O)C2CCCCC2)c2cc(-c3c(C)noc3C)cnc12)C1CC1` (stereo not drawn) [P-0071, 4-[1-cyclohexylsulfonyl-3-[cyclopropyl(methoxy)methyl]pyrrolo[3,2-b]pyridin-6-yl]-3,5-dimethyl-isoxazole], the IC50 in the assay on bromodomain was below 10 µM; in the assay on MV-4-11, 1 to 10 µM.
Taken in the same sequence, the figures for `C=CCn1cc(-c2cn(Cc3ccccc3)c3cc(-c4c(C)noc4C)cnc23)cn1` [P-0160, 4-[3-(1-allylpyrazol-4-yl)-1-benzyl-pyrrolo[3,2-b]pyridin-6-yl]-3,5-dimethyl-isoxazole] were below 10 µM and at most 1 µM.
As to `CCc1[nH]c2ncc(-c3c(C)noc3C)cc2c1C(O)C1CCC(F)(F)CC1` (stereo not drawn) [P-0044, (4,4-difluorocyclohexyl)-[5-(3,5-dimethylisoxazol-4-yl)-2-ethyl-1H-pyrrolo[2,3-b]pyridin-3-yl]methanol], the IC50 in the assay with bromodomain was below 10 µM; with MV-4-11 it was at most 1 µM.
With `Cc1noc(C)c1-c1cnc2ccn(C(C)c3ccccc3)c2c1` (stereo not drawn) [P-0159, 3,5-dimethyl-4-[1-(1-phenylethyl)pyrrolo[3,2-b]pyridin-6-yl]isoxazole], the figures for the IC50 in the assay with bromodomain and with MV-4-11 were below 10 µM and at most 1 µM, respectively.
Regarding `Cc1noc(C)c1-c1cnc2c(-c3cnn(C)c3)cn([C@H](C)c3ccccc3)c2c1` [P-0223, 3,5-dimethyl-4-[3-(1-methylpyrazol-4-yl)-1-[(1R)-1-phenylethyl]pyrrolo[3,2-b]pyridin-6-yl]isoxazole], the IC50 in the assay on bromodomain was below 10 µM; in the assay on MV-4-11 it was at most 1 µM.
Consider `Cc1noc(C)c1-c1cnc2[nH]c(-c3ccc(F)cc3)c(Cc3cccnc3)c2c1` [P-0007, 4-[2-(4-fluorophenyl)-3-(3-pyridylmethyl)-1H-pyrrolo[2,3-b]pyridin-5-yl]-3,5-dimethyl-isoxazole], for which the results for the IC50 with bromodomain and in the assay with MV-4-11 were below 10 µM and at most 1 µM, respectively.
With `Cc1noc(C)c1-c1cnc2[nH]cc(Sc3cccc(F)c3)c2c1` [P-0141, 4-[3-(3-fluorophenyl)sulfanyl-1H-pyrrolo[2,3-b]pyridin-5-yl]-3,5-dimethyl-isoxazole], the IC50 in the assay on bromodomain was below 10 µM; in the assay on MV-4-11 it was 1 to 10 µM.
Take `Cc1noc(C)c1-c1cnc2[nH]cc(S(=O)(=O)c3cccc(F)c3)c2c1` [P-0143, 4-[3-(3-fluorophenyl)sulfonyl-1H-pyrrolo[2,3-b]pyridin-5-yl]-3,5-dimethyl-isoxazole]: the half-maximal inhibitory concentration (IC50) with bromodomain was below 10 µM; in the assay on MV-4-11 it was at most 1 µM.
Taken in the same sequence, the figures for `Cc1noc(C)c1-c1cnc2c(-c3cnn(C)c3)cn(C(C(=O)O)c3ccccc3)c2c1` (stereo not drawn) [P-0206, 2-[6-(3,5-dimethylisoxazol-4-yl)-3-(1-methylpyrazol-4-yl)pyrrolo[3,2-b]pyridin-1-yl]-2-phenyl-acetic acid] were below 10 µM and 1 to 10 µM.
`Cc1noc(C)c1-c1cnc2c(-c3cnn(C)c3)cn(Cc3c(F)cccc3F)c2c1` [P-0173, 4-[1-[(2,6-difluorophenyl)methyl]-3-(1-methylpyrazol-4-yl)pyrrolo[3,2-b]pyridin-6-yl]-3,5-dimethyl-isoxazole]: the IC50 is below 10 µM in the assay with bromodomain and at most 1 µM with MV-4-11.
The corresponding values for `Cc1noc(C)c1-c1cnc2ccn(C(CC#N)C3CCCC3)c2c1` (stereo not drawn) [P-0196, 3-cyclopentyl-3-[6-(3,5-dimethylisoxazol-4-yl)pyrrolo[3,2-b]pyridin-1-yl]propanenitrile] are below 10 µM and at most 1 µM.
Turning to `C=CCn1cc(-c2cn(S(=O)(=O)C3CCCC3)c3cc(-c4c(C)noc4C)cnc23)cn1` [P-0128, 4-[3-(1-allylpyrazol-4-yl)-1-cyclopentylsulfonyl-pyrrolo [3,2-b]pyridin-6-yl]-3,5-dimethyl-isoxazole], the IC50 with bromodomain was below 10 µM; in the assay with MV-4-11 it was at most 1 µM.
Taken in the same sequence, the figures for `Cc1noc(C)c1-c1cnc2c(-c3cnn(C)c3)cn(CC3CCC(F)(F)CC3)c2c1` [P-0209, 4-[1-[(4,4-difluorocyclohexyl)methyl]-3-(1-methylpyrazol-4-yl)pyrrolo[3,2-b]pyridin-6-yl]-3,5-dimethyl-isoxazole] were below 10 µM and at most 1 µM.
The corresponding values for `CCCCS(=O)(=O)n1ccc2ncc(-c3c(C)noc3C)cc21` [P-0036, 4-(1-butylsulfonylpyrrolo [3,2-b]pyridin-6-yl)-3,5-dimethyl-isoxazole] are below 10 µM and 1 to 10 µM.
Taken in the same sequence, the figures for `Cc1noc(C)c1-c1cnc2[nH]cc(C(C)(C)c3ccc(F)cc3)c2c1` [P-0063, 4-[3-[1-(4-fluorophenyl)-1-methyl-ethyl]-1H-pyrrolo[2,3-b]pyridin-5-yl]-3,5-dimethyl-isoxazole] were below 10 µM and at most 1 µM.

By IC50 is commonly meant the concentration that gives 50% inhibition. A lower IC50 goes with greater potency in that assay.
